Assay results taken from patent publication US6465168B1, “Methods and apparatus for the inactivation of viruses” (priority 1992, dated 2002).
Where two headings read alike, the source gives them in different places. Marks after values point to notes of the source that are not given here.

How the values were obtained:
murine-C retrovirus = test: Critical fluid viral inactivation of murine-C retrovirus in serum, polybrene enhanced titer on NIH3T3 cells; type: cell-based
Source text: (§1) In its normal operating mode, valves PV-4 and PV-5 are opened and an aliquot of test solution is aseptically introduced through the 3-way valve PV-4 using a sterile syringe and a presterilized loading tube. The 3-way valve PV-4 is then turned so that the critical fluid recycle line communicates with the soaking chamber, and the vent valve PV-5 is closed. PV-1 is then opened, supplying the solvent to the compressor P-1. The compressor is turned on and immediately thereafter valves PV-2 and PV-3 are opened, introducing the critical fluid solvent into the high pressure circulation loop. When operating pressure is attained, the compressor is turned off and valve PV-3 is closed.
(§2) After system stabilization, the circulation pump P-2 is turned on and its speed adjusted, typically to 75% of maximum speed or 6,750 rpm. P-2 draws both the proteinaceous product from the bottom of the soaking chamber and the critical fluid phase from the top of the same unit. The mixture is then pumped counter-clockwise, mixed by static in-line mixer and returned to the soaking chamber. After mixing for a defined residence time, P-2 is turned off. The decompression valve PV-7 is then fully opened to depressurize the soaking chamber and the high pressure circulation loop. The rate of decompression was approximately 500 psig per second when PV-7 is a ¼″ ball valve. By using a back-pressure regulator instead of a ¼″ ball valve as the decompression valve PV-7, the rate of decompression can be controlled. In some experiments, the rate of decompression was controlled to approximately 2,000 psig per minute.
(§3) In the examples described herein, samples of a recombinant murine C-type retrovirus were prepared as follows. […] Clonal cell lines stably expressing the transfected DNA were derived and maintained as virus-producing stocks. By packaging the RNA produced by the transfected DNA into the defective particles, these cells produce infectious particles that are entirely normal with respect to overall structure, stability, and mode of infection, but containing the plasmid-derived rather that the wild type, genetic material (Mann et al., Ibid).
(§4) Because the LNCX sequences contain the antibiotic resistance gene neo and a suitable promoter, infection of cells with the recombinant retrovirus confers upon the cells resistance to the antibiotic Geneticin (G418). Conferral of Geneticin-resistance onto cells and their progeny was therefore used as the property by which virus titers were determined. Specifically, virus stocks were prepared by culturing the virus-producing cells at high density (50% confluence) in fresh culture medium (Dulebecco's modified Eagle's medium supplemented with 10% iron-supplemented calf serum [Hyclone, Inc., Logan, UT], glutamine [1 mM], penicillin [100 U/ml] and streptomycin [100 μg/ml] for 18 hours at 37 C. in a humidified 5% CO2 atmosphere. Culture medium was harvested and passed through a 0.2 micron filter, divided into aliquots, quick frozen using a dry-ice/ethanol bath and stored at −80° C. Immediately before use, samples were warmed in a 37 C. water bath until just thawed and held on ice. Aliquots of a single virus preparation were used for the examples described below.
(§5) After virus-containing samples were mixed with other materials and treated as described in each of the examples, they were returned to ice, and assayed within 8 hours. Titer tests were performed by seeding 35 mm-style culture dishes with a mouse fibroblast line (NIH3T3 cells) in 3 ml of the culture medium described above at a density of 10,000 cells per well the evening before the assay was to be performed. Virus samples were added to the culture medium over the cells at various dilution from 10^0 (undiluted) to 10^−6.

murine C-type retrovirus = type: cell-based; conditions: culture medium; for Titer: control 5,000; for effectiveness in inactivating the retrovirus: supercritical fluid, approximately 3,000 psig and 40° C.
Source text: as §1, §2, §3, §4, §5

[1] = runs CFI-28 to CFI-30: 3,000 psig, 41 C., 30 mins, serum
[2] = runs CFI-28 to CFI-30: 3,000 psig, 41 C., 30 mins, serum, polybrene, control 65,000
[3] = runs CFI-33 (Fr-22), CFI-35 (N2): 3,000 psig, 41 C., 60 mins, serum
[4] = runs CFI-33 (Fr-22), CFI-35 (N2): 3,000 psig, 41 C., 60 mins, serum, control 20,000, 5 = detection limit
[5] = run CFI-21: 3,250 psig, 41 C., 30 mins
[6] = run CFI-18: 2,560 psig, 43 C., 30 mins
[7] = run CFI-19: 2,690 psig, 41 C., 5 mins

## CCC [C3H8, propane]
murine-C retrovirus; [1]
  - log10 Reduction: 1.4
murine-C retrovirus; [2]
  Titer: 2,500 cfu/2.3 ml

## FC(F)Cl [Fr-22, chlorodifluoromethane]
murine-C retrovirus; after 30 minutes of contacting the serum, approximately 3,000 psig and 40° C.
  reduction of viral activity: ~3.2 log orders of magnitude
murine-C retrovirus; approximately 3,000 psig and 40° C., serum
  time to eliminate viral activity, within the detection limits of the assay: within five minutes
murine-C retrovirus; run CFI-31: 3,000 psig, 40 C., 5 mins, serum
  - log10 Reduction: >3.6
murine-C retrovirus; run CFI-31: 3,000 psig, 40 C., 5 mins, serum, control 20,000, 5 = detection limit
  Titer: <5* cfu/2.0 ml
murine-C retrovirus; run CFI-32: 3,000 psig, 40 C., 15 mins, serum
  - log10 Reduction: 3.6
murine-C retrovirus; run CFI-32: 3,000 psig, 40 C., 15 mins, serum, control 20,000
  Titer: 5 cfu/2.0 ml
murine-C retrovirus; [1]
  - log10 Reduction: 3.2
murine-C retrovirus; [2]
  Titer: 40 cfu/2.3 ml
murine-C retrovirus; [3]
  - log10 Reduction: >3.6
murine-C retrovirus; [4]
  Titer: <5* cfu/2.0 ml

## N#N [N2, nitrogen]
Murine C-type retrovirus; [5]
  - log10 Reduction: 0.2
  Titer: 3,000 cfu/2.3 ml
Murine C-type retrovirus
  effectiveness in inactivating the retrovirus: relatively ineffective
murine-C retrovirus; [3]
  - log10 Reduction: 0.7
murine-C retrovirus; [4]
  Titer: 3,750 cfu/2.0 ml

## [N-]=[N+]=O [N2O, nitrous oxide]
Murine C-type retrovirus; [6]
  - log10 Reduction: 2.7
  Titer: 10 cfu/2.3 ml
Murine C-type retrovirus; [7]
  - log10 Reduction: 2.0
  Titer: 50 cfu/2.3 ml
Murine C-type retrovirus; run CFI-20: 3,180 psig, 41 C., 121 mins
  - log10 Reduction: >3.0
Murine C-type retrovirus; run CFI-20: 3,180 psig, 41 C., 121 mins, 5 = detection limit
  Titer: <5* cfu/2.3 ml
Murine C-type retrovirus
  effectiveness in inactivating the retrovirus: very effective
murine-C retrovirus; 3,000 psig and 40° C., residence time 30 minutes, serum (CFI-27)
  reduction of virus activity: 1.4 logs
murine-C retrovirus; 5,000 psig and 40° C., residence time 30 minutes, serum (CFI-34)
  inactivation of the viral population, within the detection limits of the assay: inactivated the entire viral population
murine-C retrovirus; run CFI-26: 3,000 psig, 60 C., 30 mins, serum
  - log10 Reduction: >4.1
murine-C retrovirus; run CFI-26: 3,000 psig, 60 C., 30 mins, serum, polybrene, 40 C. control 65,000, 5 = detection limit
  Titer: <5* cfu/2.3 ml
murine-C retrovirus; run CFI-27: 3,000 psig, 40 C., 30 mins, serum
  - log10 Reduction: 1.4
murine-C retrovirus; run CFI-27: 3,000 psig, 40 C., 30 mins, serum, polybrene, control 65,000
  Titer: 3,000 cfu/2.3 ml
murine-C retrovirus; run CFI-34: 5,000 psig, 41 C., 30 mins, serum
  - log10 Reduction: >3.6
murine-C retrovirus; run CFI-34: 5,000 psig, 41 C., 30 mins, serum, control 20,000, 5 = detection limit
  Titer: <5* cfu/2.0 ml
murine-C retrovirus; serum (CFI-27) compared with culture medium (CFI-18)
  reduction of effectiveness by the presence of protein: one to two orders of magnitude

## CCO [ethanol]
murine-C retrovirus; 2 mole % ethanol cosolvent, approximately 3,000 psig, 40° C., 30 minutes, serum
  impact on the effect of supercritical nitrous oxide: little or no impact
murine-C retrovirus; control without critical fluid, 40° C., 2 mole % ethanol in the serum
  effect on the titer: does not affect the titer
